Patent US9290788B2, “Device for determining or studying the state of stimulation of the natural defences of plants or portions of plants” (Institut National De La Recherche Agronomique, priority 2010, dated 2016)

Test system: 28 target genes (defense genes) in apple tree leaves
Test: Test 1: relative expression of the 28 defense genes (qPCR, ΔΔCt) in apple tree seedling leaves subjected to NDS treatments and abiotic stresses
Format: in vivo, apple tree seedlings (Golden Delicious)
Conditions: for Relative expression of ANS / Relative expression of PAL / Relative expression of PR-1 / Relative expression of PR-2 / Relative expression of PR-4 / Relative expression of PR-5 / Relative expression of PR-8 / Relative expression of PR-14 / Relative expression of PR-15: vs water control
[1] = +H2O2, J2, relative to water control
[2] = +H2O2, J3, relative to water control
[3] = +H2O2 (sprayed 24 hours after treatment), J2
[4] = +H2O2 (sprayed 24 hours after treatment), J3
[5] = −H2O2, J2, relative to water control
[6] = −H2O2, J3, relative to water control

CC/C=C\CC1C(=O)CCC1CC(=O)OC (stereo not shown) [MeJA, methyl jasmonate]
Relative expression ACCO (log base 2) [1]: 3.48
Relative expression APOX (log base 2) [1]: 1.87
Relative expression CAD (log base 2) [1]: 0.70
Relative expression CHS (log base 2) [1]: 3.73
Relative expression CSL (log base 2) [1]: 2.26
Relative expression CalS (log base 2) [1]: 0.48
Relative expression DFR (log base 2) [1]: 3.43
Relative expression EDS1 (log base 2) [1]: −0.17
Relative expression EIN3 (log base 2) [1]: 2.54
Relative expression FPPS (log base 2) [1]: −0.07
Relative expression Far (log base 2) [1]: 0.74
Relative expression GST (log base 2) [1]: 0.47
Relative expression HMGR (log base 2) [1]: −0.38
Relative expression JAR (log base 2) [1]: 0.73
Relative expression LOX2 (log base 2) [1]: 1.51
Relative expression POX (log base 2) [1]: 2.84
Relative expression PPO (log base 2) [1]: 0.80
Relative expression Pect (log base 2) [1]: −2.02
Relative expression WRKY (log base 2) [1]: −0.06
Relative expression ACCO (log base 2) [2]: 2.28
Relative expression APOX (log base 2) [2]: 2.11
Relative expression CAD (log base 2) [2]: 0.35
Relative expression CHS (log base 2) [2]: 1.47
Relative expression CSL (log base 2) [2]: 1.46
Relative expression CalS (log base 2) [2]: 1.48
Relative expression DFR (log base 2) [2]: 1.36
Relative expression EDS1 (log base 2) [2]: 0.98
Relative expression EIN3 (log base 2) [2]: 1.80
Relative expression FPPS (log base 2) [2]: 0.43
Relative expression Far (log base 2) [2]: 0.39
Relative expression GST (log base 2) [2]: 0.87
Relative expression HMGR (log base 2) [2]: 0.60
Relative expression JAR (log base 2) [2]: 1.61
Relative expression LOX2 (log base 2) [2]: 1.99
Relative expression POX (log base 2) [2]: 4.29
Relative expression PPO (log base 2) [2]: 1.23
Relative expression Pect (log base 2) [2]: 2.16
Relative expression WRKY (log base 2) [2]: 3.46
Relative expression of ANS [3]: 3.29 log2
Relative expression of PAL [3]: 3.36 log2
Relative expression of PR-1 [3]: 0.40 log2
Relative expression of PR-2 [3]: 3.89 log2
Relative expression of PR-4 [3]: 1.25 log2
Relative expression of PR-5 [3]: −2.09 log2
Relative expression of PR-8 [3]: 1.41 log2
Relative expression of PR-14 [3]: −0.64 log2
Relative expression of PR-15 [3]: 3.20 log2
Relative expression of ANS [4]: 1.44 log2
Relative expression of PAL [4]: 2.01 log2
Relative expression of PR-1 [4]: 2.84 log2
Relative expression of PR-2 [4]: 0.68 log2
Relative expression of PR-4 [4]: 2.84 log2
Relative expression of PR-5 [4]: −1.22 log2
Relative expression of PR-8 [4]: 1.51 log2
Relative expression of PR-14 [4]: 3.68 log2
Relative expression of PR-15 [4]: 2.77 log2
Relative expression of ANS (−H2O2, J2): 2.31 log2
Relative expression of PAL (−H2O2, J2): 3.17 log2
Relative expression of PR-1 (−H2O2, J2): 1.56 log2
Relative expression of PR-2 (−H2O2, J2): 4.03 log2
Relative expression of PR-4 (−H2O2, J2): 2.68 log2
Relative expression of PR-5 (−H2O2, J2): −0.59 log2
Relative expression of PR-8 (−H2O2, J2): 1.85 log2
Relative expression of PR-14 (−H2O2, J2): 3.45 log2
Relative expression of PR-15 (−H2O2, J2): −0.19 log2
Relative expression of ANS (−H2O2, J3): 1.58 log2
Relative expression of PAL (−H2O2, J3): 1.66 log2
Relative expression of PR-1 (−H2O2, J3): 2.35 log2
Relative expression of PR-2 (−H2O2, J3): 3.69 log2
Relative expression of PR-4 (−H2O2, J3): 2.63 log2
Relative expression of PR-5 (−H2O2, J3): 1.49 log2
Relative expression of PR-8 (−H2O2, J3): 1.00 log2
Relative expression of PR-14 (−H2O2, J3): 5.09 log2
Relative expression of PR-15 (−H2O2, J3): 1.21 log2
Relative expression ACCO (log base 2) [5]: 1.92
Relative expression APOX (log base 2) [5]: −3.00
Relative expression CAD (log base 2) [5]: 1.52
Relative expression CHS (log base 2) [5]: 2.97
Relative expression CSL (log base 2) [5]: 2.29
Relative expression CalS (log base 2) [5]: 0.05
Relative expression DFR (log base 2) [5]: 2.92
Relative expression EDS1 (log base 2) [5]: 1.91
Relative expression EIN3 (log base 2) [5]: 3.82
Relative expression FPPS (log base 2) [5]: 0.00
Relative expression Far (log base 2) [5]: 2.34
Relative expression GST (log base 2) [5]: 1.00
Relative expression HMGR (log base 2) [5]: 1.49
Relative expression JAR (log base 2) [5]: 1.25
Relative expression LOX2 (log base 2) [5]: 1.60
Relative expression POX (log base 2) [5]: 0.66
Relative expression PPO (log base 2) [5]: 1.28
Relative expression Pect (log base 2) [5]: 0.98
Relative expression WRKY (log base 2) [5]: 1.25
Relative expression ACCO (log base 2) [6]: 1.96
Relative expression APOX (log base 2) [6]: 0.95
Relative expression CAD (log base 2) [6]: 0.01
Relative expression CHS (log base 2) [6]: 1.22
Relative expression CSL (log base 2) [6]: 1.81
Relative expression CalS (log base 2) [6]: 1.14
Relative expression DFR (log base 2) [6]: 1.55
Relative expression EDS1 (log base 2) [6]: 1.22
Relative expression EIN3 (log base 2) [6]: 1.22
Relative expression FPPS (log base 2) [6]: 0.13
Relative expression Far (log base 2) [6]: 1.51
Relative expression GST (log base 2) [6]: −0.15
Relative expression HMGR (log base 2) [6]: 1.16
Relative expression JAR (log base 2) [6]: 0.63
Relative expression LOX2 (log base 2) [6]: 1.45
Relative expression POX (log base 2) [6]: 3.86
Relative expression PPO (log base 2) [6]: 0.78
Relative expression Pect (log base 2) [6]: 3.87
Relative expression WRKY (log base 2) [6]: 0.85
